Results published in patent US7247734B2 (Vernalis (Cambridge) Limited, priority 2001, dated 2007).
Where two headings read alike, the source gives them in different places.

Molecular target: T1, yeast HSP90 (Saccharomyces cerevisiae, UniProt P02829)
T1 construct: made in house; host or cells: E. coli
Test: Malachite green HSP90 ATPase assay
Type: biochemical
Conditions: 1 mM ATP, ±SD if n=3–5
Summary of the method: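 E. coli-expressed yeast HSP90 ATPase activity measured as released inorganic phosphate by malachite green–molybdate colour (610 nm), with sodium citrate added to suppress non-enzymatic ATP hydrolysis. Assay buffer 100 mM Tris-HCl pH 7.4, 20 mM KCl, 6 mM MgCl2; compounds screened at 40 μM final.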

T1 sequence (P02829 whole entry, looked up): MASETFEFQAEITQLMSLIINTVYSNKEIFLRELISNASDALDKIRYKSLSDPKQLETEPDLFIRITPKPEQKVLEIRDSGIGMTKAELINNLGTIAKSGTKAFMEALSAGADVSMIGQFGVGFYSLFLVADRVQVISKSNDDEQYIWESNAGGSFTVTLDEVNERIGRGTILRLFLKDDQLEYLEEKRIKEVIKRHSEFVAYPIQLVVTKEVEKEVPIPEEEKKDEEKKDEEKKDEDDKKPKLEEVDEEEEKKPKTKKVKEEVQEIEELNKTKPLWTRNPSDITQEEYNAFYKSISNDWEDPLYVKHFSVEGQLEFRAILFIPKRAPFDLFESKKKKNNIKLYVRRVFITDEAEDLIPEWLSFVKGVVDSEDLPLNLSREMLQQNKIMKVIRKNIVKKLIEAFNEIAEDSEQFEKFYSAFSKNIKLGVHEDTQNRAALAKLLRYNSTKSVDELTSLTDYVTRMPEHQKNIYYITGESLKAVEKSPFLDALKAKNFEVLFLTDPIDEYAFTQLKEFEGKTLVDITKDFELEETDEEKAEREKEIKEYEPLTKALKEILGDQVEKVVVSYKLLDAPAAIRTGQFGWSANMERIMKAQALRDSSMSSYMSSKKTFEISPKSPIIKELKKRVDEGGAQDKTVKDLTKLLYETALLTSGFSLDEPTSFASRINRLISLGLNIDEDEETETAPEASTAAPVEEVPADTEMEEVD

Row | Structure (SMILES) | IC50 (HSP90 ATPase inhibition IC50, malachite green assay) | IC50 (malachite green assay, read-out: HSP90 ATPase inhibition IC50)
1 | CCc1cc(-c2n[nH]c(C)c2-c2ccc3c(c2)OCCO3)c(O)cc1O [CCT018159, 4-[4-(2,3-Dihydro-benzo[1,4]dioxin-6-yl)-5-methyl-1H-pyrazol-3-yl]-6-ethyl-benzene-1,3-diol] | 9.2 ± 0.65 µM | –
2 | Cc1[nH]nc(-c2ccc(O)cc2O)c1-c1ccc2c(c1)OCCO2 [CCT018157] | – | 60.5 ± 8 µM
